Columns and labels:
[1] = target: T1, human orexin type 2 receptor (Homo sapiens, UniProt O43614); assay: Measurement of orexin type 2 receptor agonist activity (calcium fluorescence, CHO cells forcibly expressing human OX2 receptor); type: cell-based; settings: compound at 3 μM, DMSO = 0%, orexin A (human) 10 nM = 100%
T1 construct: expressed in transfected cells
T1 sequence (O43614 1-444): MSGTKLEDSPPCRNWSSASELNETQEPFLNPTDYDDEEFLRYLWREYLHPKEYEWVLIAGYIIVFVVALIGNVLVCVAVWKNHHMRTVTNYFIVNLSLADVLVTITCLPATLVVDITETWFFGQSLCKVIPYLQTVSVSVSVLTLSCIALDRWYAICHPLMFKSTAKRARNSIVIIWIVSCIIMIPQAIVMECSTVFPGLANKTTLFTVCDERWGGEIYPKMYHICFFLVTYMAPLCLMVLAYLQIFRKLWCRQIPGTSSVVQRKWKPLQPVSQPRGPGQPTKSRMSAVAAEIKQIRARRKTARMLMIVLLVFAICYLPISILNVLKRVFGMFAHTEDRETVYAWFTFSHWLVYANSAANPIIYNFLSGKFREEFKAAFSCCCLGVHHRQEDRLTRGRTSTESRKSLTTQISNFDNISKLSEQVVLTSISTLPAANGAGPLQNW
How it was run: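 Agonism measured as Fluo-4 calcium fluorescence in CHO-K1 cells stably expressing human OX2 receptor, loaded 30 min at 37° C then 30 min at room temperature with probenecid. Signal recorded about 2 min 40 sec after compound; activity (%) normalised to DMSO (0%) and 10 nM human orexin A (100%).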

SD rats = assay: Evaluation of wake-promoting effects in SD rats (EEG/EMG); type: in vivo, rat; settings: s.c., 10 mg/kg, at ZT5, 3 hr after administration
Experimental: The wake-promoting effects were evaluated by measuring the electroencephalogram (EEG) and electromyogram (EMG) in SD rats (Crl:CD(SD), CHARLES RIVER LABORATORIES JAPAN, Kanagawa, Japan.) using chronic experiment telemetry automatic measurement system (PhysioTel® and PONEMAH™, Data Sciences International Inc., Minnesota, U.S.A.). Under pentobarbital sodium anesthesia (50 mg/kg, intraperitoneal, Somnopentyl®, Kyoritsu Seiyaku, Tokyo, Japan), […] male SD rats were surgically implanted with a transmitter. Bilateral EEG leads were positioned at the parietal area in contact with the dura and fixed to the cranium with dental cement. Bilateral EMG leads were fixed to the back cervical muscles. The transmitter was implanted under the skin of the back, and the head skin was sutured. After recovery for at least 1 week, the cortical EEG and EMG signals in SD rats were recorded using a high-end data acquisition and real-time analysis system (PONEMAH™). The signals were automatically scored in 4 sec epochs by a sleep scoring system (SleepSign®, Kissei Comtec Co., Ltd.). Test compound (1 or 10 mg/kg, Table 3) dissolved in a mixed solution containing 10% DMSO, 10% Cremophor EL, 20% PEG400 and 60% H2O, or vehicle (i.e., a mixed solution containing 10% DMSO, 10% Cremophor EL, 20% PEG400 and 60% H2O) was administered subcutaneously (s.c.) to the SD rats at zeitgeber time (ZT) 5 (when the start time of the light cycle was ZT0) in a volume of 5 mL/kg. The EEG and EMG recordings were performed for 3 hr after the compound administration. The time spent in wakefulness for 3 hr after administration (% of vehicle treatment) was calculated by using SleepSign.

- OX2R agonist activity (3 μM, %) [1]: 104%
Structure (SMILES): CC#CC1CCC(OCC2C(NS(C)(=O)=O)CCc3ccc(C)c(=O)n32)CC1 [Example 146, rel-N-[(3S,4R)-7-methyl-6-oxo-4-({[(1s,4S)-4-(prop-1-yn-1-yl)cyclohexyl]oxy}methyl)-1,3,4,6-tetrahydro-2H-quinolizin-3-yl]methanesulfonamide]
- Wakefulness time (% of vehicle treatment) (Mean, n = 2) (SD rats): 166.75 % of vehicle treatment
